Experimental data reported in patent publication US20100041089A1, “IMPROVED METHOD FOR DETECTING CHEMICAL […]” (priority 2006, published 2010).

Tested on: yeast genes (expressed mRNA)
Test: DNA chip measurement of expressed mRNA of yeast genes after culture with a toxic chemical substance
Format: cell-based, Saccharomyces cerevisiae S288C
Method in brief: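 Each expression value is the mRNA level in chemical-treated yeast divided by that in untreated yeast, from Cy3/Cy5 fluorescence on a whole-genome chip. Log-phase S288C cells in YPD at 25° C had received a sublethal, growth-inhibiting dose for two hours. Intensity denotes control expression relative to the all-gene mean.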

COc1cc(CNC(=O)CCCCC=CC(C)C)ccc1O [(12), 8-Methyl-N-vanillyl-6-nonenamide]
The level of expressed mRNA in the presence of chemical substance/The level of expressed mRNA in the absence of chemical substance (yeast gene YAL012W, metabolism protein genes): 1.1
The level of expressed mRNA in the presence of chemical substance/The level of expressed mRNA in the absence of chemical substance (yeast gene YAL034C, cultured two hours with substance): 2.8
The level of expressed mRNA in the presence of chemical substance/The level of expressed mRNA in the absence of chemical substance (yeast gene YAL053W, cultured two hours with substance): 0.6
The level of expressed mRNA in the presence of chemical substance/The level of expressed mRNA in the absence of chemical substance (yeast gene YAL054C): 1.0
The level of expressed mRNA in the presence of chemical substance/The level of expressed mRNA in the absence of chemical substance (yeast gene YAR028W, cultured two hours with substance): 0.8
The level of expressed mRNA in the presence of chemical substance/The level of expressed mRNA in the absence of chemical substance (yeast gene YBL001C): 0.7
The level of expressed mRNA in the presence of chemical substance/The level of expressed mRNA in the absence of chemical substance (yeast gene YBL048W, cultured two hours with substance): 1.2
The level of expressed mRNA in the presence of chemical substance/The level of expressed mRNA in the absence of chemical substance (yeast gene YBL107C, cultured two hours with substance): 1.4
The level of expressed mRNA in the presence of chemical substance/The level of expressed mRNA in the absence of chemical substance (yeast gene YBR072W (stress protein genes)): 16.3
The level of expressed mRNA in the presence of chemical substance/The level of expressed mRNA in the absence of chemical substance (yeast gene YBR203W, cultured two hours with substance): 1.6
The level of expressed mRNA in the presence of chemical substance/The level of expressed mRNA in the absence of chemical substance (yeast gene YBR222C): 0.9
The level of expressed mRNA in the presence of chemical substance/The level of expressed mRNA in the absence of chemical substance (yeast gene YBR256C): 1.7
The level of expressed mRNA in the presence of chemical substance/The level of expressed mRNA in the absence of chemical substance (yeast gene YBR273C, cultured two hours with substance): 0.8
The level of expressed mRNA in the presence of chemical substance/The level of expressed mRNA in the absence of chemical substance (yeast gene YCL009C): 1.7
The level of expressed mRNA in the presence of chemical substance/The level of expressed mRNA in the absence of chemical substance (yeast gene YCR037C): 0.7
The level of expressed mRNA in the presence of chemical substance/The level of expressed mRNA in the absence of chemical substance (yeast gene YCR048W): 0.9
The level of expressed mRNA in the presence of chemical substance/The level of expressed mRNA in the absence of chemical substance (yeast gene YDL072C, cultured two hours with substance): 1.2
The level of expressed mRNA in the presence of chemical substance/The level of expressed mRNA in the absence of chemical substance (yeast gene YDL110C, cultured two hours with substance): 1.5
The level of expressed mRNA in the presence of chemical substance/The level of expressed mRNA in the absence of chemical substance (yeast gene YDL174C, cultured for two hours with substance): 2.8
The level of expressed mRNA in the presence of chemical substance/The level of expressed mRNA in the absence of chemical substance (yeast gene YDL204W, cultured two hours with substance): 0.9
The level of expressed mRNA in the presence of chemical substance/The level of expressed mRNA in the absence of chemical substance (yeast gene YDL222C, cultured two hours with substance): 1.0
The level of expressed mRNA in the presence of chemical substance/The level of expressed mRNA in the absence of chemical substance (yeast gene YDR003W, cultured two hours with substance): 0.8
The level of expressed mRNA in the presence of chemical substance/The level of expressed mRNA in the absence of chemical substance (yeast gene YDR009W): 1.0
The level of expressed mRNA in the presence of chemical substance/The level of expressed mRNA in the absence of chemical substance (yeast gene YDR019C): 0.7
The level of expressed mRNA in the presence of chemical substance/The level of expressed mRNA in the absence of chemical substance (yeast gene YDR031W, cultured two hours with substance): 0.9
The level of expressed mRNA in the presence of chemical substance/The level of expressed mRNA in the absence of chemical substance (yeast gene YDR070C, cultured two hours with substance): 4.3
The level of expressed mRNA in the presence of chemical substance/The level of expressed mRNA in the absence of chemical substance (yeast gene YDR330W, cultured two hours with substance): 1.0
The level of expressed mRNA in the presence of chemical substance/The level of expressed mRNA in the absence of chemical substance (yeast gene YDR391C, cultured two hours with substance): 1.4
The level of expressed mRNA in the presence of chemical substance/The level of expressed mRNA in the absence of chemical substance (yeast gene YDR406W (transport facilitation protein gene)): 3.9
The level of expressed mRNA in the presence of chemical substance/The level of expressed mRNA in the absence of chemical substance (yeast gene YDR410C): 0.9
The level of expressed mRNA in the presence of chemical substance/The level of expressed mRNA in the absence of chemical substance (yeast gene YDR411C, cultured two hours with substance): 1.5
The level of expressed mRNA in the presence of chemical substance/The level of expressed mRNA in the absence of chemical substance (yeast gene YDR476C, cultured two hours with substance): 2.1
The level of expressed mRNA in the presence of chemical substance/The level of expressed mRNA in the absence of chemical substance (yeast gene YDR486C, cultured two hours with substance): 1.3
The level of expressed mRNA in the presence of chemical substance/The level of expressed mRNA in the absence of chemical substance (yeast gene YDR497C, metabolism protein genes): 0.9
The level of expressed mRNA in the presence of chemical substance/The level of expressed mRNA in the absence of chemical substance (yeast gene YDR511W, cultured two hours with substance): 0.8
The level of expressed mRNA in the presence of chemical substance/The level of expressed mRNA in the absence of chemical substance (yeast gene YDR534C, cultured two hours with substance): 1.5
The level of expressed mRNA in the presence of chemical substance/The level of expressed mRNA in the absence of chemical substance (yeast gene YDR545W, cultured two hours with substance): 0.9
The level of expressed mRNA in the presence of chemical substance/The level of expressed mRNA in the absence of chemical substance (yeast gene YEL001C, cultured two hours with substance): 1.1
The level of expressed mRNA in the presence of chemical substance/The level of expressed mRNA in the absence of chemical substance (yeast gene YER004W, cultured two hours with substance): 1.7
The level of expressed mRNA in the presence of chemical substance/The level of expressed mRNA in the absence of chemical substance (yeast gene YER026C): 1.7
The level of expressed mRNA in the presence of chemical substance/The level of expressed mRNA in the absence of chemical substance (yeast gene YER035W, cultured two hours with substance): 1.1
The level of expressed mRNA in the presence of chemical substance/The level of expressed mRNA in the absence of chemical substance (yeast gene YER038C, cultured two hours with substance): 0.9
The level of expressed mRNA in the presence of chemical substance/The level of expressed mRNA in the absence of chemical substance (yeast gene YER079W, cultured two hours with substance): 0.9
The level of expressed mRNA in the presence of chemical substance/The level of expressed mRNA in the absence of chemical substance (yeast gene YER096W, metabolism protein genes): 0.9
The level of expressed mRNA in the presence of chemical substance/The level of expressed mRNA in the absence of chemical substance (yeast gene YER106W, cultured two hours with substance): 0.9
The level of expressed mRNA in the presence of chemical substance/The level of expressed mRNA in the absence of chemical substance (yeast gene YER158C, cultured two hours with substance): 1.0
The level of expressed mRNA in the presence of chemical substance/The level of expressed mRNA in the absence of chemical substance (yeast gene YER163C, cultured two hours with substance): 1.0
The level of expressed mRNA in the presence of chemical substance/The level of expressed mRNA in the absence of chemical substance (yeast gene YER175C, cultured two hours with substance): 0.9
The level of expressed mRNA in the presence of chemical substance/The level of expressed mRNA in the absence of chemical substance (yeast gene YFL006W, cultured two hours with substance): 1.2
The level of expressed mRNA in the presence of chemical substance/The level of expressed mRNA in the absence of chemical substance (yeast gene YFL010C, cultured two hours with substance): 1.5
